In patent US20240083851A1 (priority 2020, published 2024):

Tests used:
[1] = tested on: MSCs; assay: Osteoblast differentiation of MSCs with LAD plus kinase inhibitor (Alizarin Red); assay type: cell-based, human; details: LAD 1 μM combined with inhibitor (1 μM) of ERK, P38 or Akt, 3 weeks, compared to LAD alone
Protocol: To further study the mechanism by which LAD differentiates MSCs into osteoblasts, an experiment was performed using a kinase inhibitor.
After MSCs were cultured, the MSCs were simultaneously treated with a kinase inhibitor (1 μM) and LAD (1 μM). Next day, the medium was exchanged, and the MSCs were simultaneously treated again with the kinase inhibitor and LAD. This procedure was repeated for 3 weeks, and the MSCs were than stained with Alizarin Red.

[2] = tested on: phosphorylated ERK (pERK); assay: ERK phosphorylation in MSCs after LAD treatment; assay type: cell-based, human
Protocol: Accordingly, the level of phosphorylated ERK according to time elapsed after MSCs were treated with LAD was determined.
Also, to determine whether LAD induces the ERK phosphorylation for a long period, MSCs were treated with various concentrations (0.001, 0.01, and 0.1 μM) of LAD, and the level of phosphorylated ERK (pERK) was checked after 7 days and 14 days. […] In particular, it was confirmed that the level of phosphorylated ERK (pERK) increased to a level similar to that of the positive control (OIM) even at a low concentration.

[3] = tested on: BMP-2; assay: Change in expression of BMP2 in MSCs (antibody staining, fluorescence microscope); assay type: cell-based, human; details: 0.001 μM (1 nM), once a day for 7 and 14 days, increased with concentration up to 0.1 μM
Text: (§1) Runt-related transcription factor 2 (RUNX2; core-binding factor alpha, Cbfa1) is the most important transcriptional regulatory factor for osteogenesis, and is known to be involved in osteoblast differentiation, matrix generation, and mineralization during the osteogenesis (Bruderer M, et al., Eur Cell Mater. 2014). Also, RUNX2 itself may be regulated by a bone morphogenetic protein (BMP), which is a type of cytokine (Sun J, et al., Mol Med Rep. 2015). Accordingly, it was confirmed whether LAD promotes the expression of an osteogenesis-related specific factor to induce osteogenesis.
(§2) MSCs were seeded in a 24-well plate at a concentration of 3×10^4 cells/well, and cultured for 24 hours. From the next day, the MSCs were treated with different concentrations (0.001 μM, 0.01 μM, and 0.1 μM) of LAD once a day for 7 days and 14 days. After the experiment was completed, the MSCs were stained with RUNX2 and BMP-2 antibodies, and observed using a fluorescence microscope.

[4] = tested on: RUNX2; assay: RUNX2 expression in femurs of ovariectomized mice; assay type: in vivo; details: LAD oral, daily for 10 weeks
Text: (§3) An ability of LAD to treat osteoporosis was confirmed in an animal model of ovariectomized (OVX) mice commonly used as an animal model of osteoporosis.
(§4) As the positive control, parathyroid hormone (PTH)-based Forteo (Eli Lilly) used as an osteoporosis therapeutic agent through an osteogenesis-promoting mechanism, and alendronate-based Fosamax (Merck) serving as a bone resorption inhibitor, were subcutaneously administered. As the negative control, water (H2O) was orally administered, and LAD was orally administered at a concentration of 5 or 30 mg/kg (FIG. 8A). After the drug was administered daily for 10 weeks, the bone mineral density (BMD) was measured.
In Table 1, BMD represents bone mineral density, TV represents total volume, BV represents bone volume, Tb.Th represents trabecular thickness, and Tb.N represents trabecular number.

[5] = tested on: osteocalcin; assay: Change in expression of osteocalcin in MSCs (antibody staining, fluorescence microscope); assay type: cell-based, human; details: 0.001 μM, within 7 days, level similar to OIM-treated group
Protocol: Osteocalcin is expressed only in osteoblasts (Lee et al., Cell 2007), and is used as a useful biomarker for osteogenesis (Bharadwaj et al., Osteoporosis International., 2009).
An experiment was performed in the same manner as described in Experimental Example 1-2, and MSCs were then stained with an osteocalcin antibody, and observed using a fluorescence microscope.

[6] = tested on: RUNX2; assay: Change in expression of RUNX2 in MSCs (antibody staining, fluorescence microscope); assay type: cell-based, human; details: 0.001 μM (1 nM), once a day for 7 and 14 days, increased with concentration up to 0.1 μM
Text: as §1, §2

[7] = tested on: ovariectomized (OVX) mice; assay: Ovariectomized (OVX) mice model of osteoporosis, femur bone parameters; assay type: in vivo; details: daily for 10 weeks; for BMD: femur
Text: as §3, §4

[8] = tested on: phosphorylated forms of 43 kinases (ERK, Akt, WNK1); assay: Phosphokinase antibody array in MSCs; assay type: cell-based, human; details: LAD 1 μM, 24 hours, compared to control DMSO
Protocol: To study a mechanism by which LAD differentiates MSCs into osteoblasts, related signaling was investigated.
MSCs cultured in an experimental DMEM culture medium were treated with LAD (1 μM) or the control compound (DMSO), and cultured for 24 hours. The cells were recovered, and an experiment was then performed according to a method specified in a phosphokinase antibody array kit (R&D Systems) containing antibodies that specifically recognize phosphorylated forms of 43 kinases. Then, samples were analyzed using an ImageJ (NIH, USA) program.

[9] = tested on: RUNX2; assay: Effect of ERK inhibitor on increase in RUNX2 expression by LAD in MSCs; assay type: cell-based, human
Protocol: ERK may induce the phosphorylation of RUNX2 to increase transcriptional activity and may be involved in stability to increase an amount of RUNX2 protein (Greenblatt et al., MB, Annu Rev Cell Dev Biol. 2013). Therefore, an increase in ERK phosphorylation by LAD may induce RUNX2 expression so that LAD can be involved in the differentiation of MSCs into osteoblasts. To verify this, an expression level of RUNX2 was determined after MSCs were treated with a combination of LAD (0.1 μM) and the ERK inhibitor PD98059 (50 μM).

[10] = OVX mice, positive control subcutaneous

In the case of `CCN1C[C@]2(OC(=O)c3ccccc3NC(C)=O)CC[C@H](OC)C34C1C(C[C@@H]32)C(=O)C[C@H](OC)[C@H]1C[C@@H]4C(=O)[C@H]1OC` [LAD, (3S,6S,7S,9S,11S,16S)-1-ethyl-6,9,11-trimethoxy-8,13-dioxododecahydro-2H-3,6a,14-(epiethane[1,1,2]triyl)-7,10-methanocyclodeca[b]azocin-3(4H)-yl 2-acetaminobenzoate], the “osteoblast differentiation ability of LAD (Alizarin Red)” value [1] is reported as “inhibited”, the “level of phosphorylated ERK (pERK)” value ([2]; MSCs, 0.001, 0.01 and 0.1 μM LAD, after 7 days and 14 days, similar to OIM even at low concentration) is reported as “significantly increased” and the “level of phosphorylated ERK (pERK)” value ([2]; MSCs, 24 hours after LAD treatment) is reported as “increased”. For the same compound, the “level of phosphorylated ERK (pERK)” value ([2]; MSCs, within 30 minutes after LAD treatment) was “significantly increased”, the “expression of BMP-2” value [3] was “strongly induced” and the “expression of RUNX2 in femurs” value [4] was “significantly increased”. The expression of osteocalcin [5] was “strongly induced”, the “expression of RUNX2” value [6] was “strongly induced” and the BV ([7]; OVX mice, LAD 5 mg/kg oral) was 1.009 mm^3. The BV/TV ([7]; OVX mice, LAD 5 mg/kg oral) was 6.422%, the TV ([7]; OVX mice, LAD 5 mg/kg oral) was 15.6 mm^3 and the “Tb. N” value ([7]; OVX mice, LAD 5 mg/kg oral) was 0.8775 mm. The “Tb. Th” value ([7]; OVX mice, LAD 5 mg/kg oral) was 0.205 1/mm, the BMD ([7]; OVX mice, LAD 5 mg/kg oral) was 0.2066 g/mL and the BV ([7]; OVX mice, LAD 30 mg/kg oral) was 1.17 mm^3. For the same compound, the BV/TV ([7]; OVX mice, LAD 30 mg/kg oral) was 7.036%, the TV ([7]; OVX mice, LAD 30 mg/kg oral) was 16.58 mm^3 and the “Tb. N” value ([7]; OVX mice, LAD 30 mg/kg oral) was 0.9485 mm. For the same compound, the “Tb. Th” value ([7]; OVX mice, LAD 30 mg/kg oral) was 0.0739 1/mm, the BMD ([7]; OVX mice, LAD 30 mg/kg oral) was 0.2168 g/mL and the “bone mineral density compared to the negative control” value ([7]; OVX mice, LAD 5 or 30 mg/kg oral, versus water) was “significantly increased”. The “effect on bone mineral density compared with Forteo” value ([7]; OVX mice, LAD oral versus Forteo subcutaneous) was “significantly superior to that of Forteo”, the “osteogenesis in the femurs (tissue staining)” value ([7]; ovariectomized mice, LAD oral) was “induced osteogenesis” and the “phosphorylation of signaling molecules such as ERK, Akt, WNK1” value [8] was “strongly increased”. For the same compound, the “expression of RUNX2” value ([9]; LAD 0.1 μM alone, within 12 hours (same at 24 hours)) was “significantly increased”.
For `COc1cccc(-c2cc(=O)c3ccccc3o2)c1N` [PD98059, reference compound], the “expression of RUNX2” value ([9]; combination of LAD 0.1 μM and PD98059 50 μM, 12 hours (same at 24 hours)) was “significantly decreased”.
`NCCCC(O)(P(=O)(O)O)P(=O)(O)O` [Fosamax, reference compound] was tested, and the BV [7, 10] was 1.017 mm^3, the BV/TV [7, 10] was 6.521% and the TV [7, 10] was 15.51 mm^3. For the same compound, the “Tb. N” value [7, 10] was 0.9286 mm, the “Tb. Th” value [7, 10] was 0.06994 1/mm and the BMD [7, 10] was 0.2145 g/mL.
In the case of `CC[C@H](C)[C@H](NC(=O)[C@H](CCC(=O)O)NC(=O)[C@H](CO)NC(=O)[C@@H](NC(=O)[C@@H](N)CO)C(C)C)C(=O)N[C@@H](CCC(N)=O)C(=O)N[C@@H](CC(C)C)C(=O)N[C@@H](CCSC)C(=O)N[C@@H](Cc1cnc[nH]1)C(=O)N[C@@H](CC(N)=O)C(=O)N[C@@H](CC(C)C)C(=O)NCC(=O)N[C@@H](CCCCN)C(=O)N[C@@H](Cc1cnc[nH]1)C(=O)N[C@@H](CC(C)C)C(=O)N[C@@H](CC(N)=O)C(=O)N[C@@H](CO)C(=O)N[C@@H](CCSC)C(=O)N[C@@H](CCC(=O)O)C(=O)N[C@@H](CCCN=C(N)N)C(=O)N[C@H](C(=O)N[C@@H](CCC(=O)O)C(=O)N[C@@H](Cc1c[nH]c2ccccc12)C(=O)N[C@@H](CC(C)C)C(=O)N[C@@H](CCCN=C(N)N)C(=O)N[C@@H](CCCCN)C(=O)N[C@@H](CCCCN)C(=O)N[C@@H](CC(C)C)C(=O)N[C@@H](CCC(N)=O)C(=O)N[C@@H](CC(=O)O)C(=O)N[C@H](C(=O)N[C@@H](Cc1cnc[nH]1)C(=O)N[C@@H](CC(N)=O)C(=O)N[C@@H](Cc1ccccc1)C(=O)O)C(C)C)C(C)C` [Forteo, reference compound], the BV [7, 10] is reported as 0.8791 mm^3, the BV/TV [7, 10] is reported as 5.735% and the TV [7, 10] is reported as 15.43 mm^3. For the same compound, the “Tb. N” value [7, 10] was 0.8018 mm, the “Tb. Th” value [7, 10] was 0.07112 1/mm and the BMD [7, 10] was 0.2013 g/mL.
